The values that follow are results of earlier work, collected in patent US7198796B2, “Antifungal parenteral products” (Vicuron Pharmaceuticals Inc., priority 2002, dated 2007).

*1 amine or outer side, *2 acyl side, *3 side chain or, on linkers, in order; H or OH if unused. Where a SMILES comes first, the peptide text is derived from it. Bridges are numbered along the chain shown (N, C = ends). [ ]: non-standard residue; d: D form. The star is where a group is joined. ξ: configuration not given here. pTerphenylCO(4''-OnC5H11) = CCCCCOc1ccc(-c2ccc(-c3ccc(C(=O)*)cc3)cc2)cc1; ξOrn(4R-OH,5R-OH) = O=C(C(C[C@@H](O)[C@@H](O)N[*:3])N[*:1])[*:2]; hTyr(3S-OH,4S-OH) = N[C@H](C(=O)O)[C@H](O)[C@@H](O)c1ccc(O)cc1; Pro(3S-OH,4S-Me) = C[C@H]1CN[C@H](C(=O)O)[C@H]1O; Hyp = O=C(O)[C@@H]1C[C@@H](O)CN1

Turning to `CCCCCOc1ccc(-c2ccc(-c3ccc(C(=O)NC4C[C@@H](O)[C@@H](O)NC(=O)[C@@H]5[C@@H](O)[C@@H](C)CN5C(=O)[C@H]([C@@H](C)O)NC(=O)[C@H]([C@H](O)[C@@H](O)c5ccc(O)cc5)NC(=O)[C@@H]5C[C@@H](O)CN5C(=O)[C@H]([C@@H](C)O)NC4=O)cc3)cc2)cc1` (stereo partly drawn) [anidulafungin, 1-[(4R,5R)-4,5-Dihydroxy-N(2)-[[4″-(pentyloxy)[1,1′:4′,1″-terphenyl]-4-yl]carbonyl]-L-ornithine]echinocandin B] ({pTerphenylCO(4''-OnC5H11)}-[ξOrn(4R-OH,5R-OH)]T[Hyp][hTyr(3S-OH,4S-OH)]T[Pro(3S-OH,4S-Me)]; lactam 1-C), the water solubility result was “less than 0.1 mg/ml”.
